# Paper PMC10648852, “Molecular drivers of resistance to sulbactam-durlobactam in contemporary clinical isolates of Acinetobacter baumannii” (Antimicrobial Agents and Chemotherapy, 2023)
# Where two headings read alike, the source gives them in different places.
# How the values were obtained:
# [1] = tested on: ARC7093 (AdeJ [G288S]) versus NCTC 13304; experiment: Ethidium bromide uptake (accumulation) assay; type: cell-based, A. baumannii; settings: over 20 min; 8 µM EtBr; P < 0.0001
# Description: This AdeJ variant has been previously described in the context of carbapenem resistance due to the overexpression of the AdeJ pump, although the association was only made based on genotype, not phenotype ([31]). The efflux capacity of ARC7093 was, therefore, compared to NCTC 13304, a SUL-DUR-susceptible clinical isolate with wild-type AdeIJK, in an ethidium bromide accumulation assay. […] Therefore, the AdeJ (G288S) variant may play a role in susceptibility to SUL-DUR in Acinetobacter spp.
# NCTC 13304 and ARC7093 were cultured overnight on Tryptic Soy Blood Agar plates. Single colonies were used to inoculate 2 mL of Mueller-Hinton Cation-adjusted Broth (MHBII) and grown overnight at 35°C with shaking. On the day of the experiment, the overnight culture was diluted 100-fold into a flask containing 20 mL of MHBII and grown under the same conditions to OD600 ~0.2. Two-mL aliquots of this logarithmic phase culture were centrifuged. The pellets were gently re-suspended in 2-mL of sterile phosphate-buffered saline (pH 7.0) containing 8 µM EtBr. The cells were transferred to a black-wall, clear-bottom 96-well microplate, and EtBr fluorescence (excitation—530 nm, emission—590 nm) was measured over a period of 20 min in a SpectraMax M5e plate reader (Molecular Devices). Statistical significance for the accumulation of ethidium bromide was determined using an unpaired t-test.
# [2] = tested on: A. baumannii AB5075 and transposon mutants in efflux genes; experiment: Broth microdilution MIC, isogenic A. baumannii transposon mutants in efflux genes; type: cell-based; settings: for MIC shift as compared to the parent strain: AB5075; for In vitro activity (MIC): tested in duplicate
# Experimental: (§1) To further assess the role of efflux in SUL-DUR activity against Acinetobacter spp., two panels of A. baumannii isogenic strains were tested. The first consisted of 7 members of an A. baumannii transposon library ([28]) with single gene disruptions in the adeABC, adeIJK, or adeT loci as compared to the parent strain, AB5075. […] This panel of strains consists of four different point mutants in AdeR and five different point mutants in AdeS, which result in the upregulation of AdeABC expression. In addition, this panel contains chromosomal deletions of adeL and adeN, which result in overexpression of AdeFGH and AdeIJK, respectively ([29]).
# The parent and each isogenic mutant strain in both panels was measured for susceptibility to sulbactam, durlobactam, SUL-DUR, imipenem, and gentamicin. […].
# (§2) The AB5075 parent strain as well as transposon interrupted AdeABC, AdeIJK, and AdeT were purchased from the Manoil laboratory at the University of Washington from their arrayed transposon mutant collection ([28]). The KAB1544 parent as well as efflux pump regulator mutants and deletions were constructed as previously described ([29]).
# (§3) Antimicrobial susceptibility testing was performed using broth microdilution following standardized methods established by the Clinical Laboratory Standards Institute (CLSI) ([35], [36]). Quality control testing was performed as specified by CLSI using A. baumannii NCTC 13304 ([35]). MIC values were interpreted using CLSI breakpoints for all antimicrobial agents except those for which CLSI breakpoints are not available ([35]). SUL-DUR was tested as twofold dilutions of sulbactam in combination with a fixed concentration of 4 µg/mL durlobactam ([35]).
# [3] = tested on: A. baumannii KAB1544 and efflux overexpression mutants; experiment: Broth microdilution MIC, isogenic A. baumannii overexpression efflux mutants; type: cell-based; settings: for MIC: Acinetobacter baumannii
# Experimental: as §1
# In contrast, sulbactam, SUL-DUR, and imipenem MIC values were unaffected by these mutants (Table 4).
# as §2, §3
compound,measurement,setting,value
CC[n+]1c(-c2ccccc2)c2cc(N)ccc2c2ccc(N)cc21 [ethidium bromide],accumulation of ethidium bromide in ARC7093 versus NCTC 13304,[1],significantly lower
CNC(C)C1CCC(N)C(OC2C(N)CC(N)C(OC3OCC(C)(O)C(NC)C3O)C2O)O1 (stereo not drawn) [gentamicin],MIC shift as compared to the parent strain,[2]; AdeA disruption,> 64 fold
same,MIC shift as compared to the parent strain,[2]; AdeB disruption,> 8 fold
same,In vitro activity (MIC),[2]; Parent (AB5075),> 64 µg/mL
same,In vitro activity (MIC),[2]; adeA::tn in AB5075,1 µg/mL
same,In vitro activity (MIC),[2]; adeB::tn in AB5075,8 µg/mL
same,In vitro activity (MIC),[2]; adeC::tn in AB5075,> 64 µg/mL
same,In vitro activity (MIC),[2]; adeI::tn in AB5075,> 64 µg/mL
same,In vitro activity (MIC),[2]; adeJ::tn in AB5075,> 64 µg/mL
same,In vitro activity (MIC),[2]; adeK::tn in AB5075,> 64 µg/mL
same,In vitro activity (MIC),[2]; adeT::tn in AB5075,> 64 µg/mL
same,MIC,"[3]; AdeR A91V, AdeABC overexpressed, read-out: MIC",32 µg/mL
same,MIC,"[3]; AdeR D20N, AdeABC overexpressed, read-out: MIC",16 µg/mL
same,MIC,"[3]; AdeR E219A, AdeABC overexpressed, read-out: MIC",2 µg/mL
same,MIC,"[3]; AdeR P116L, AdeABC overexpressed, read-out: MIC",16 µg/mL
same,MIC,"[3]; AdeS A94V, AdeABC overexpressed, read-out: MIC",16 µg/mL
same,MIC,"[3]; AdeS G30D, AdeABC overexpressed, read-out: MIC",32 µg/mL
same,MIC,"[3]; AdeS G103D, AdeABC overexpressed, read-out: MIC",2 µg/mL
same,MIC,"[3]; AdeS R152K, AdeABC overexpressed, read-out: MIC",16 µg/mL
same,MIC,"[3]; AdeS T153M, AdeABC overexpressed, read-out: MIC",32 µg/mL
same,MIC,"[3]; Parent (KAB1544), no efflux pump overexpressed, read-out: MIC",2 µg/mL
same,MIC,"[3]; ΔadeL, AdeFGH overexpressed",2 µg/mL
same,MIC,"[3]; ΔadeN, AdeIJK overexpressed",2 µg/mL
same,change in MIC values relative to the parent strain,[3]; {},8- to 16 fold
